Counter-ions that a name gives are not always drawn. Like-named read-outs stand apart in the source and are kept apart here.
Key:
T-47D cells = experiment: Caspase cascade activation / induction of apoptosis in T-47D cells (fluorogenic N-(Ac-DEVD)-N'-ethoxycarbonyl-R110 substrate); format: cell-based, human; conditions: Homo sapiens, T47D
tubulin = tubulin (Bos taurus, UniProt P81947+Q6B856); experiment: Inhibition of tubulin polymerization (DAPI fluorescence); format: biochemical; conditions: MAP-rich tubulin, 30 minutes at 37° C.
tubulin, sequence (P81947 whole entry): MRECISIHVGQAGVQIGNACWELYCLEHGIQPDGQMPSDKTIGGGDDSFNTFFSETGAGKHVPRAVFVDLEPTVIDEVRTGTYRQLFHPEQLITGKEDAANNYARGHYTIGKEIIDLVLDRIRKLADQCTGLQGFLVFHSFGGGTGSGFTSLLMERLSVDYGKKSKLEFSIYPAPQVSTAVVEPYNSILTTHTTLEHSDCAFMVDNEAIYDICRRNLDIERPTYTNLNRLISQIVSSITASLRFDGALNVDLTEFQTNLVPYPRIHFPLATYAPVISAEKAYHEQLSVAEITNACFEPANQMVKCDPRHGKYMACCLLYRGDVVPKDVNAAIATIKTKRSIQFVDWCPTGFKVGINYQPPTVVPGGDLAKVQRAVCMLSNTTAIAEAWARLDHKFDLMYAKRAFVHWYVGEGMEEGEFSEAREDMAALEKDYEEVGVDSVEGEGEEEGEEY
tubulin, sequence (Q6B856 whole entry): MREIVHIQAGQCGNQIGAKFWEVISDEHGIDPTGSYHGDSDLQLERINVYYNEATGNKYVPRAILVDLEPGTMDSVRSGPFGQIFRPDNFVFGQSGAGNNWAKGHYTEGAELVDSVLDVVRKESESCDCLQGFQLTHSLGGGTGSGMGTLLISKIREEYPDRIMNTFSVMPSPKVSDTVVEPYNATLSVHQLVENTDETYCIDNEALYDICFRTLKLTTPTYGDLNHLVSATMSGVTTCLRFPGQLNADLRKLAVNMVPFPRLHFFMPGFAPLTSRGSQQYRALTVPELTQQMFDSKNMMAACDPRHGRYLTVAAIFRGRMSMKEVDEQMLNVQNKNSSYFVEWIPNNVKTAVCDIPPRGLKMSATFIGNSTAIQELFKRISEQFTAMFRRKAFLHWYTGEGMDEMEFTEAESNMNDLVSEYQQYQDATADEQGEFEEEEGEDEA
Experimental: Lyophilized tubulin (Cytoskeleton #ML113, 1 mg, MAP-rich) was assayed for the effect of the test compound on tubulin polymerization as measured by change in fluorescence for 4′,6-diamidino-2-phenylindole (DAPI) (Barron, D. M. et al. Analytical Biochem., 2003, 315, 49-56). 1 μl of serial dilutions of each test compound (from 100×DMSO stock) was added in 96 well plate format and preincubated for 30 minutes with 94 ul of the non-GTP supplemented tubulin supernatant. 5 μl of DAPI/GTP solution was added to initiate polymerization and incubated for 30 minutes at 37° C. Fluorescence was read with excitation 350 nm, emission wavelength 485 nm on a Tecan Spectraflour Plus. Polymerized tubulin (DMSO and with the tubulin stabilizer Taxol® (paclitaxel)) gives a higher DAPI fluorescence as compared to non-polymerized tubulin (vinblastine and colchicine used to determine baseline).

[1] = test system: P388 murine leukemia cell line; experiment: P388 cytotoxicity (ATP-Lite, 72 hours); format: cell-based; conditions: Mus musculus, P388, 72 hours
Experimental: A P388 murine leukemia cell line was obtained from NCI, Frederick, Md. P388 cells were cultured in RPMI-1640 supplemented with 10% fetal bovine serum, 2 mM Glutamax, 1 mM sodium pyruvate, 0.1 mM non-essential amino acids and 10 mM HEPES. Cells were grown at 37° C. in a humidified 5% CO2 atmosphere. Exponentially growing P388 cells were plated at 5,000 cells/well in a 96-well flat-bottomed microtiter plate (Corning, Costar #3595). […] Cellular viability was determined 72 hours later by measuring intracellular ATP with ATP-Lite assay system. The effect of compounds on cell viability was calculated by comparing the ATP levels of cells exposed to test compound with those of cells exposed to DMSO. […] Data was analyzed by Prism software (GraphPad; San Diego, Calif.) by fitting it to a sigmoidal dose response curve.

[2] = T-47D, 24 hr, read-out: T-47D (24 hr) EC50
[3] = Table III, time not given, repeats 24 hr or 48 hr T-47D values of Table I, read-out: Caspase activation (EC50 nM)
[4] = 24 h, read-out: T-47D (24 hr) EC50 (nM)
[5] = read-out: Caspase activation (EC50 nM)
[6] = T-47D, 48 hr, read-out: T-47D (48 hr) EC50

EC50 (T-47D cells; [3]) | IC50 (tubulin) | SMILES | IC50 [1] | other results
31 nM | 3000 nM | Cc1ccc(N(C)c2nc(Cl)nc3ccccc23)cc1 [Example 2, (2-Chloro-quinazolin-4-yl)-(4-methyl-phenyl)-methyl-amine] | – | EC50 (T-47D cells; [2]): 31 nM
260 nM | 6000 nM | COc1ccc(N(C)c2nc(NC/C=C(\C)CCC=C(C)C)nc3ccccc23)cc1 [Example 13, N^2-(3,7-Dimethyl-octa-2,6-dienyl)-N^4-(4-methoxy-phenyl)-N^4-methyl-quinazoline-2,4-diamine] | – | EC50 (T-47D cells; [2]): 260 nM
161 nM | 3000 nM | COc1ccc(N(C)c2nc(Cl)nc3cc(OC)c(OC)cc23)cc1 [Example 20, (2-Chloro-6,7-dimethoxyquinazolin-4-yl)-(4-methoxy-phenyl)-methyl-amine] | – | EC50 (T-47D cells; [2]): 161 nM
42 nM | 2000 nM | COc1ccc(N(C)c2ncnc3c2CCCC3)cc1 [Example 25, (5,6,7,8-Tetrahydro-quinazolin-4-yl)-(4-methoxy-phenyl)-methyl-amine] | – | EC50 (T-47D cells; [6]): 42 nM
317 nM | 10000 nM | COc1ccc(OC)c(Nc2nc(Cl)nc3ccccc23)c1 [Example 31, (2-Chloro-quinazolin-4-yl)-(2,5-dimethoxy-phenyl)-amine] | – | EC50 (T-47D cells; [2]): 317 nM; EC50 (T-47D cells; [6]): 563 nM
141 nM | 4000 nM | Cc1ccc(N(C)c2ncnc3ccccc23)cc1 [Example 35, (4-Methyl-phenyl)-methyl-quinazolin-4-yl-amine] | – | EC50 (T-47D cells; [2]): 141 nM
20 nM | < 1000 nM | COc1ccc(N(C)c2nc(Cl)nc3ccccc23)c(OC)c1 [Example 41, (2-Chloro-quinazolin-4-yl)-(2,4-dimethoxy-phenyl)-methyl-amine] | – | EC50 (T-47D cells; [6]): 20 nM
282 nM | 5000 nM | COc1ccc(OC)c(N(C)c2nc(Cl)nc3ccccc23)c1 [Example 42, (2-Chloro-quinazolin-4-yl)-(2,5-dimethoxy-phenyl)-methyl-amine] | – | EC50 (T-47D cells; [2]): 282 nM; EC50 (T-47D cells; [6]): 265 nM
34 nM | 2000 nM | COc1cccc(N(C)c2nc(Cl)nc3ccccc23)c1 [Example 43, (2-Chloro-quinazolin-4-yl)-(3-methoxy-phenyl)-methyl-amine] | – | EC50 (T-47D cells; [6]): 34 nM
501 nM | 10000 nM | COc1ccccc1N(C)c1nc(Cl)nc2ccccc12 [Example 44, (2-Chloro-quinazolin-4-yl)-(2-methoxy-phenyl)-methyl-amine] | – | EC50 (T-47D cells; [6]): 501 nM
599 nM | 10000 nM | COc1ccc(N(C)c2nccc3ccccc23)cc1 [Example 65, (Isoquinolin-1-yl)-(4-methoxy-phenyl)-methyl-amine] | – | EC50 (T-47D cells; [6]): 599 nM
– | – | CCOc1ccc(N(C)c2nc(CN)nc3cccc(F)c23)c(F)c1 [Example 250, (2-Aminomethyl-5-fluoro-quinazolin-4-yl)-(4-ethoxy-2-fluoro-phenyl)-methyl-amine] | 22 nM | –
– | – | COc1c(Cl)cc(N(C)c2nc(CCl)nc3ccccc23)cc1Cl [Example 251, (2-Chloromethyl-quinazolin-4-yl)-(3,5-dichloro-4-methoxy-phenyl)-methyl-amine] | 2080 nM | –
– | – | COc1ccc(N(C)c2nc(CN3CCCCC3=O)nc3ccccc23)cc1 [Example 252, 1-{4-[(4-Methoxy-phenyl)-methyl-amino]-quinazolin-2-ylmethyl}-piperidin-2-one] | 1000 nM | –
– | – | CCOc1ccc(N(C)c2nc(C)nc3ccccc23)cc1F [Example 253, (4-Ethoxy-3-fluoro-phenyl)-methyl-(2-methyl-quinazolin-4-yl)-amine] | 3 nM | –
– | – | COc1c(Cl)cc(N(C)c2nc(CN)nc3ccccc23)cc1Cl [Example 254, (2-Aminomethyl-quinazolin-4-yl)-(3,5-dichloro-4-methoxy-phenyl)-methyl-amine bis(hydrochloride)] | 5200 nM | –
– | – | COc1ccc(N(C)c2nc(CN3CCCC3=O)nc3ccccc23)cc1 [Example 255, 1-{4-[(4-Methoxy-phenyl)-methyl-amino]-quinazolin-2-ylmethyl}-pyrrolidin-2-one] | 610 nM | –
– | – | COc1ccc(N(C)c2nc(CNCCCO)nc3ccccc23)cc1 [Example 256, 3-({4-[(4-Methoxy-phenyl)-methyl-amino]-quinazolin-2-ylmethyl}-amino)-propan-1-ol] | 1800 nM | –
– | – | CCOc1c(Cl)cc(N(C)c2nc(CCl)nc3ccccc23)cc1Cl [Example 257, (2-Chloromethyl-quinazolin-4-yl)-(3,5-dichloro-4-ethoxy-phenyl)-methyl-amine] | 2400 nM | –
– | – | CCOc1ccc(N(C)c2nc(CCl)nc3ccccc23)cc1Cl [Example 258, (3-Chloro-4-ethoxy-phenyl)-(2-chloromethyl-quinazolin-4-yl)-methyl-amine] | 15 nM | –
– | – | COc1ccc(N(C)c2nc(C)nc3ccc(CN)cc23)cc1 [Example 259, (6-Aminomethyl-2-methyl-quinazolin-4-yl)-(4-methoxy-phenyl)-methyl-amine] | 773 nM | –
– | – | CCOc1ccc(N(C)c2nc(CN3C(=O)c4ccccc4C3=O)nc3ccccc23)cc1Cl [Example 260, 2-{4-[(3-Chloro-4-ethoxy-phenyl)-methyl-amino]-quinazolin-2-ylmethyl}-isoindole-1,3-dione] | 469 nM | –
– | – | CCOc1ccc(N(C)c2nc(CN)nc3ccccc23)cc1Cl [Example 261] | 9 nM | –

SMILES | EC50 (T-47D cells; [3]) | IC50 (tubulin) | IC50 [1] | other results
CN(c1ccccc1)c1nc(Cl)nc2ccccc12 [Example 6, (2-Chloro-quinazolin-4-yl)-phenyl-methyl-amine] | – | 4000 nM | – | EC50 (T-47D cells; [4]): 219 nM; EC50 (T-47D cells; [5]): 219 nM
COc1ccc(N(C)c2ncnc3ccccc23)cc1 [Example 34, (4-Methoxy-phenyl)-methyl-quinazolin-4-yl-amine] | – | 1000 nM | – | –
COc1ccc(N(C)c2nc(C)nc3ccccc23)cc1 [Example 72, (4-Methoxy-phenyl)-methyl-(2-methyl-quinazolin-4-yl)-amine hydrochloride] | – | < 1000 nM | – | EC50 (T-47D cells; [4]): 2 nM; EC50 (T-47D cells; 48 h, read-out: T-47D (48 hr) EC50 (nM)): 2 nM; EC50 (T-47D cells; [5]): 2 nM

— US20130029942A1, “COMPOUNDS AND THERAPEUTICAL USES THEREOF” (Myrexis, Inc., priority 2003, published 2013)
